# Assay results from patent publication US20210085640A1, “ACYLATED CATECHIN POLYPHENOLS AND METHODS OF THEIR USE FOR THE TREATMENT OF CANCER” (Flagship Pioneering Innovations V, Inc., priority 2018, published 2021).
# Experiments:
# Format in all cases: cell-based
# A-431 skin cancer cells = assay: Cancer cell survival (CellTiter-Glo), A-431; design: Cell survival at given concentration: unit not given here; conditions: A-431 cells, 72 h
# Procedure: (§1) The cells were prepared as follows. Cells were harvested during logarithmic growth, counted, and adjusted to 4.44×10^4 cells/mL with culture media. 90 μL of suspended cells were added to wells of 96-well plates for a final cell count of 4×10^3 cells/well. The plates were incubated overnight at 37 C with 5% CO2 overnight.
# (§2) The test compounds were assayed as follows. Compound solutions were mixed at 10× final concentrations in cell media: 1 μM-10 mM (fatty acids) or 100 nM-1 mM (all other compounds). […] of solution was added to each well of cells in triplicate for each concentration. Well plates were incubated for 72 h at 37 C with 5% CO2 and then assayed with CellTiter-Glo by adding 50 μL of CTG solution to each well. Cells were lysed by shaking on an orbital shaker for 5 min. Plates were incubated at room temperature for 20 min and then each well's luminescence was measured. The surviving percentage of cells was determined as:
# (§3) Survival %=(LumTest article−LumMedium control)/(LumNone treated−LumMedium control)[…]
# (§4) Cytotoxicity was assessed at nine concentration levels for each compound and the 50% inhibition concentration (IC50) determined for each compound.
# [1] = system: Daudi lymphoma cancer cells; assay: Cancer cell survival (CellTiter-Glo), Daudi; conditions: 72 h
# Procedure: as §1, §2, §3
# Activity was assessed at nine concentration levels for each compound and the 50% inhibition concentration (IC50) determined for each compound.
# AGS stomach cancer cells = assay: Cancer cell survival (CellTiter-Glo), AGS; design: Cell survival at given concentration: unit not given here
# Procedure: as §1, §2, §3, §4
# [2] = system: PC-3 prostate cancer cells; assay: Cancer cell survival (CellTiter-Glo), PC-3; conditions: PC-3 cells, 72 h
# Procedure: as §1, §2, §3, §4
# [3] = system: HCT 116 colorectal cancer cells; assay: Cancer cell survival (CellTiter-Glo), HCT 116; conditions: HCT 116 cells, 72 h
# Procedure: as §1, §2, §3, §4
# MCF7 breast cancer cells = assay: Cancer cell survival (CellTiter-Glo), MCF7; conditions: 72 h
# Procedure: as §1, §2, §3, §4
# A549 lung cancer cells = assay: Cancer cell survival (CellTiter-Glo), A549; conditions: 72 h
# Procedure: as §1, §2, §3, §4
# T24 bladder cancer cells = assay: Cancer cell survival (CellTiter-Glo), T24; conditions: 72 h
# Procedure: as §1, §2, §3
# Efficacy was assessed at nine concentration levels for each compound and the 50% inhibition concentration (IC50) determined for each compound.
compound,measurement,setting,value
CC(=O)O [acetate],Cell survival at given concentration,"A-431 skin cancer cells; 1 μM, Table 9.2",1.02
same,Cell survival at given concentration,"A-431 skin cancer cells; 3 μM, Table 9.2",1.03
same,Cell survival at given concentration,"A-431 skin cancer cells; 10 μM, Table 9.2",1.06
same,Cell survival at given concentration,"A-431 skin cancer cells; 32 μM, Table 9.2",1.03
same,Cell survival at given concentration,"A-431 skin cancer cells; 100 μM, Table 9.2",1.05
same,Cell survival at given concentration,A-431 skin cancer cells; 317 μM,1.05
same,Cell survival at given concentration,A-431 skin cancer cells; 1 mM,1.05
same,Cell survival at given concentration,A-431 skin cancer cells; 3 mM,1.02
same,Cell survival at given concentration,A-431 skin cancer cells; 10 mM,0.99
same,Cell survival at given concentration,"[1]; 1 μM, Table 4.2",1.00
same,Cell survival at given concentration,"[1]; 3 μM, Table 4.2",0.99
same,Cell survival at given concentration,"[1]; 10 μM, Table 4.2",0.99
same,Cell survival at given concentration,"[1]; 32 μM, Table 4.2",1.01
same,Cell survival at given concentration,"[1]; 100 μM, Table 4.2",1.02
same,Cell survival at given concentration,[1]; 317 μM,1.02
same,Cell survival at given concentration,[1]; 1 mM,1.01
same,Cell survival at given concentration,[1]; 3 mM,0.97
same,Cell survival at given concentration,[1]; 10 mM,0.75
same,Cell survival at given concentration,"AGS stomach cancer cells; 1 μM, Table 10.2",0.99
same,Cell survival at given concentration,"AGS stomach cancer cells; 3 μM, Table 10.2",1.00
same,Cell survival at given concentration,"AGS stomach cancer cells; 10 μM, Table 10.2",1.02
same,Cell survival at given concentration,"AGS stomach cancer cells; 32 μM, Table 10.2",1.03
same,Cell survival at given concentration,"AGS stomach cancer cells; 100 μM, Table 10.2",1.03
same,Cell survival at given concentration,AGS stomach cancer cells; 317 μM,1.03
same,Cell survival at given concentration,AGS stomach cancer cells; 1 mM,1.02
same,Cell survival at given concentration,AGS stomach cancer cells; 3 mM,1.03
same,Cell survival at given concentration,AGS stomach cancer cells; 10 mM,1.02
same,Cell survival at given concentration,"[2]; 1 μM, Table 8.2",1.05
same,Cell survival at given concentration,"[2]; 3 μM, Table 8.2",1.00
same,Cell survival at given concentration,"[2]; 10 μM, Table 8.2",1.02
same,Cell survival at given concentration,"[2]; 32 μM, Table 8.2",1.03
same,Cell survival at given concentration,"[2]; 100 μM, Table 8.2",1.07
same,Cell survival at given concentration,[2]; 317 μM,1.05
same,Cell survival at given concentration,[2]; 1 mM,1.01
same,Cell survival at given concentration,[2]; 3 mM,1.00
same,Cell survival at given concentration,[2]; 10 mM,0.88
same,IC50,[2]; Table 8.2,> 10 mM
same,Cell survival at given concentration,"[3]; 1 μM, Table 6.2",1.01
same,Cell survival at given concentration,"[3]; 3 μM, Table 6.2",1.03
same,Cell survival at given concentration,"[3]; 10 μM, Table 6.2",1.03
same,Cell survival at given concentration,"[3]; 32 μM, Table 6.2",1.03
same,Cell survival at given concentration,"[3]; 100 μM, Table 6.2",1.06
same,Cell survival at given concentration,[3]; 317 μM,1.02
same,Cell survival at given concentration,[3]; 1 mM,1.02
same,Cell survival at given concentration,[3]; 3 mM,1.00
same,Cell survival at given concentration,[3]; 10 mM,0.84
same,IC50,[3]; Table 6.2,> 10 mM
same,Cell survival at given concentration,"MCF7 breast cancer cells; 1 μM, Table 5.2",1.01
same,Cell survival at given concentration,"MCF7 breast cancer cells; 3 μM, Table 5.2",1.02
same,Cell survival at given concentration,"MCF7 breast cancer cells; 10 μM, Table 5.2",0.98
same,Cell survival at given concentration,"MCF7 breast cancer cells; 32 μM, Table 5.2",1.03
same,Cell survival at given concentration,"MCF7 breast cancer cells; 100 μM, Table 5.2",1.02
same,Cell survival at given concentration,MCF7 breast cancer cells; 317 μM,1.04
same,Cell survival at given concentration,MCF7 breast cancer cells; 1 mM,0.99
same,Cell survival at given concentration,MCF7 breast cancer cells; 3 mM,0.99
same,Cell survival at given concentration,MCF7 breast cancer cells; 10 mM,0.91
same,Cell survival at given concentration,"A549 lung cancer cells; 1 μM, Table 7.2",1.00
same,Cell survival at given concentration,"A549 lung cancer cells; 3 μM, Table 7.2",1.01
same,Cell survival at given concentration,"A549 lung cancer cells; 10 μM, Table 7.2",1.00
same,Cell survival at given concentration,"A549 lung cancer cells; 32 μM, Table 7.2",1.06
same,Cell survival at given concentration,"A549 lung cancer cells; 100 μM, Table 7.2",1.09
same,Cell survival at given concentration,A549 lung cancer cells; 317 μM,1.02
same,Cell survival at given concentration,A549 lung cancer cells; 1 mM,1.03
same,Cell survival at given concentration,A549 lung cancer cells; 3 mM,1.03
same,Cell survival at given concentration,A549 lung cancer cells; 10 mM,1.00
same,Cell survival at given concentration,"T24 bladder cancer cells; 1 μM, Table 3.2",0.97
same,Cell survival at given concentration,"T24 bladder cancer cells; 3 μM, Table 3.2",0.97
same,Cell survival at given concentration,"T24 bladder cancer cells; 10 μM, Table 3.2",1.04
same,Cell survival at given concentration,"T24 bladder cancer cells; 32 μM, Table 3.2",0.97
same,Cell survival at given concentration,"T24 bladder cancer cells; 100 μM, Table 3.2",1.00
same,Cell survival at given concentration,T24 bladder cancer cells; 317 μM,1.01
same,Cell survival at given concentration,T24 bladder cancer cells; 1 mM,0.99
same,Cell survival at given concentration,T24 bladder cancer cells; 3 mM,0.97
same,Cell survival at given concentration,T24 bladder cancer cells; 10 mM,0.91
